Data: article PMC12261228 (ACS Pharmacology & Translational Science, 2025)

What was measured:
CCRF-CEM = test: MTS cytotoxicity assay, 72 h; type: cell-based; conditions: Homo sapiens, CCRF-CEM, 72 h, read-out: IC50 CCRF-CEM, MTS assay, 3-day incubation, mean ± SD of 3 experiments
CEM-DNR = test: MTS cytotoxicity assay, 72 h; type: cell-based; conditions: Homo sapiens, read-out: IC50 CEM-DNR
K562 = test: MTS cytotoxicity assay, 72 h; type: cell-based; conditions: Homo sapiens, K562, 72 h, read-out: IC50 K562
K562-TAX = test: MTS cytotoxicity assay, 72 h; type: cell-based; conditions: read-out: IC50 K562-TAX
HCT116 = test: MTS cytotoxicity assay, 72 h; type: cell-based; conditions: Homo sapiens, HCT-116, 72 h, read-out: IC50 HCT116
HCT116p53–/– = test: MTS cytotoxicity assay, 72 h; type: cell-based; conditions: read-out: IC50 HCT116p53–/–
U2OS = test: MTS cytotoxicity assay, 72 h; type: cell-based, human; conditions: Homo sapiens, U2OS, 72 h, read-out: IC50 U2OS, MTS assay, 3-day incubation, mean ± SD
MRC-5 = test: MTS cytotoxicity assay, 72 h; type: cell-based; conditions: Homo sapiens, MRC5, 72 h, read-out: IC50 MRC-5
BJ = test: MTS cytotoxicity assay, 72 h; type: cell-based; conditions: Homo sapiens, read-out: IC50 BJ
HUVEC = test: MTS cytotoxicity assay, 72 h; type: cell-based; conditions: Homo sapiens, 3-day incubation, mean ± SD
panel of cell lines [1] = system: panel of cell lines
panel of cell lines [2] = test: cells; conditions: read-out: IC50 values, cancer cell lines
CCRF-CEM lymphoblasts = test: FACS analysis of cell cycle, apoptosis, mitosis and polyploidy; conditions: for Mitosis: phospho-Histone (Ser10); for Apoptosis: sub-G0/G1 DNA content, % of positive cells

## COc1cc2c(c(OC)c1OC)-c1ccc(N(C)C(=O)CCC3=C4C(C)=CC(C)=[N+]4[B-](F)(F)n4c(C)cc(C)c43)c(=O)cc1[C@@H](NC(C)=O)CC2 [CB12]
CCRF-CEM
  IC50: 5.54 ± 0.475 µM
CEM-DNR
  IC50: 36 ± 2.04 µM
K562
  IC50: 4.25 ± 0.89 µM
K562-TAX
  IC50: 8.07 ± 0.706 µM
HCT116
  IC50: 8.09 ± 0.268 µM
HCT116p53–/–
  IC50: 8.35 ± 0.549 µM
U2OS
  IC50: 9.12 ± 0.174 µM
MRC-5
  IC50: > 50 µM
BJ
  IC50: > 50 µM
HUVEC
  IC50: 8.24 ± 0.77 µM
Panel of cell lines [1]
  RI (resistance index): 4.50
  SI (selectivity index): >7.07
Panel of cell lines [2]
  IC50: 2.5 to 9 µM
CCRF-CEM lymphoblasts; 1×IC50, 24 h
  G0/G1: 32.27%
  G2/M: 26.62%
  Polyploid cells: 18.91%
  S: 41.12%
  Mitosis: 9.86%
  Apoptosis: 4.12%
CCRF-CEM lymphoblasts; 5×IC50, 24 h
  G0/G1: 21.05%
  G2/M: 53.56%
  Polyploid cells: 23.39%
  S: 25.39%
  Mitosis: 23.11%
  Apoptosis: 10.47%
